From patent US5455222A, “1-substituted-5-thiomethylthiocyanato-1H-tetrazoles, compositions containing them and their use as antimicrobial and marine antifouling agents” (The Dow Chemical Company, priority 1994, dated 1995)
In brackets after ≈: the same amount, converted by molar mass.

How the values were obtained:
Trichoderma viride (Tv) = test: Minimum inhibitory concentration (MIC), yeast/fungi in malt yeast agar; type: cell-based, Trichoderma viride ATCC 8678; details: 30° C., 72 hours for fungi
Protocol: (§1) The minimum inhibitory concentration (MIC) for the compounds listed in Table I is determined for 9 bacteria, using nutrient agar, and 7 yeast and fungi, using malt yeast agar. A one percent solution of the test compound is prepared in a mixture of acetone and water.
(§2) Malt yeast agar is prepared by adding 3 g yeast extract and 45 g malt agar per liter of deionized water. The specific agar is dispensed in 30 mL aliquots into 25×200 mm test tubes, capped and autoclaved for 15 minutes at 115° C.
(§3) The test tubes containing the agar are cooled in a water bath until the temperature of the agar is 48° C. Then, an appropriate amount of the one percent solution of the test compound is added (except in the controls where no compound is added) to the respective test tubes so that the final concentrations are 500, 250, 100, 50, 25, 10, 5, 2.5, 1.0 and zero parts per million of the test compound in the agar, thus having a known concentration of test compound dispersed therein. The contents of the test tubes are then transferred to respective petri plates. After drying for 24 hours, the petri plates containing nutrient agar are inoculated with bacteria and those containing malt yeast agar are inoculated with yeast and fungi.
(§4) The inoculation with the yeast and fungi is accomplished as follows. Cultures of yeast and fungi are incubated for seven days on malt yeast agar at 30° C. These cultures are used to prepare suspensions by the following procedure. A suspension of each organism is prepared by adding 10 mL of sterile saline and 10 microliters of octylphenoxy polyethoxy ethanol to the agar slant of yeast or fungi. The sterile saline/octylphenoxy polyethoxy ethanol solution is then agitated with a sterile swab to suspend the microorganism grown on the slant. Each resulting suspension is diluted into sterile saline (1 part suspension to 9 parts sterile saline). Aliquots of these dilutions are placed in individual wells of Steer's Replicator and petri plates inoculated as previously described. The petri plates are incubated at 30° C. and read after 48 hours for yeast and 72 hours for fungi.
(§5) Table II lists the bacteria, yeast and fungi used in the MIC test described above along with their respective American Type Culture Collection (ATCC) identification numbers.
(§6) In Tables III and IV, the MIC values of the compounds described in Table I as compared to the MIC of a standard commercial preservative (with 1-(3-chloroallyl)-3,5,7-triaza-1-azoniaadamantane chloride as the active agent and referred to in Tables III and IV as "STANDARD I") are set forth for the bacteria organisms and yeast/fungi organisms which are listed in Table II.

Fusarium oxysporum (Fo) = test: as above; type: cell-based, Fusarium oxysporum ATCC 48112; details: 30° C., 72 hours for fungi
Protocol: as §1, §2, §3, §4, §5, §6

Aspergillus niger (An) = test: as above; type: cell-based, Aspergillus niger ATCC 16404; details: 30° C., 72 hours for fungi
Protocol: as §1, §2, §3, §4, §5, §6

Escherichia coli (Ec) = test: Minimum inhibitory concentration (MIC), bacteria in nutrient agar; type: cell-based, Escherichia coli ATCC 11229; details: 48 hours
Protocol: as §1
(§7) Nutrient agar is prepared at pH 6.8, representing a neutral medium, and at pH 8.2, representing an alkaline medium. The nutrient agars are prepared by adding 23 g of nutrient agar to one liter of deionized water. In addition, the alkaline medium is prepared by adjusting a 0.04M solution of N-[tris-(hydroxymethyl)methyl]glycine buffered deionized water with concentrated sodium hydroxide to a pH of 8.5.
as §3
(§8) The inoculation with bacteria is accomplished by using the following procedure. Twenty-four hour-cultures of each of the bacteria are prepared by incubating the respective bacteria in tubes containing nutrient broth for 24 hours at 30° C. in a shaker. Dilutions of each of the 24 hour-cultures are made so that nine separate suspensions (one for each of the nine test bacteria) are made, each containing 10^8 colony forming units (CFU) per mL of suspension of a particular bacteria. Aliquots of 0.3 mL of each of the bacterial suspensions are used to fill the individual wells of Steer's Replicator. For each microbial suspension, 0.3 mL was used to fill three wells (i.e., three wells of 0.3 mL each) so that for the nine different bacteria, 27 wells are filled. The Steer's Replicator is then used to inoculate both the neutral and alkaline pH nutrient agar petri plates.
(§9) The inoculated petri plates are incubated at 30° C. for 48 hours and then read to determine if the test compound which is incorporated into the agar prevented growth of the respective bacteria.
as §5, §6

[1] = tested on: Enterobacter aerogenes (Ea); test: as above; type: cell-based, Enterobacter aerogenes ATCC 13048; details: Klebsiella aerogenes, 48 hours
Protocol: as §1, §7, §3, §8, §9, §5, §6

Proteus vulgaris (Pv) = test: as above; type: cell-based, Proteus vulgaris ATCC 881; details: 48 hours
Protocol: as §1, §7, §3, §8, §9, §5, §6

[2] = tested on: Salmonella choleraesuis (Sc); test: as above; type: cell-based, Salmonella choleraesuis ATCC 10708; details: Salmonella enterica, 48 hours
Protocol: as §1, §7, §3, §8, §9, §5, §6

[3] = tested on: Aureobasidium pullulan (Ap); test: Minimum inhibitory concentration (MIC), yeast/fungi in malt yeast agar; type: cell-based, Aureobasidium pullulan ATCC 16622; details: 30° C., read after 48 hours for yeast and 72 hours for fungi
Protocol: as §1, §2, §3, §4, §5, §6

[4] = tested on: Pseudomonas aeruginosa (PRD-10); test: Minimum inhibitory concentration (MIC), bacteria in nutrient agar; type: cell-based, Pseudomonas aeruginosa ATCC 15442; details: 48 hours
Protocol: as §1, §7, §3, §8, §9, §5, §6

[5] = tested on: Penicillium chrysogenum (Pc); test: Minimum inhibitory concentration (MIC), yeast/fungi in malt yeast agar; type: cell-based, Penicillium chrysogenum ATCC 9480; details: 30° C., 72 hours for fungi
Protocol: as §1, §2, §3, §4, §5, §6

[6] = tested on: Saccharomyces cerevisiae (Sc); test: as above; type: cell-based, Saccharomyces cerevisiae ATCC 4105; details: 30° C., 48 hours for yeast
Protocol: as §1, §2, §3, §4, §5, §6

Candida albicans (Ca) = test: as above; type: cell-based, Candida albicans ATCC 10231; details: 30° C., 48 hours for yeast
Protocol: as §1, §2, §3, §4, §5, §6

[7] = tested on: Klebsiella pneumoniae (Kp); test: Minimum inhibitory concentration (MIC), bacteria in nutrient agar; type: cell-based, Klebsiella pneumoniae ATCC 8308; details: 48 hours
Protocol: as §1, §7, §3, §8, §9, §5, §6

[8] = tested on: Staphylococcus aureus (Sa); test: as above; type: cell-based, Staphylococcus aureus ATCC 6538; details: 48 hours
Protocol: as §1, §7, §3, §8, §9, §5, §6

Bacillus subtilis (Bs) = test: as above; type: cell-based, Bacillus subtilis ATCC 8473; details: 48 hours
Protocol: as §1, §7, §3, §8, §9, §5, §6

[9] = tested on: Pseudomonas aeruginosa (Pa); test: as above; type: cell-based, Pseudomonas aeruginosa ATCC 10145; details: nutrient agar pH 8.2, 30° C., 48 hours
Protocol: as §1, §7, §3, §8, §9, §5, §6

| SMILES | MIC (Trichoderma viride (Tv)) | MIC (Fusarium oxysporum (Fo)) | MIC (Aspergillus niger (An)) | MIC (Escherichia coli (Ec); nutrient agar pH 6.8, 30° C.) | MIC (Escherichia coli (Ec); nutrient agar pH 8.2, 30° C.) | MIC ([1]; nutrient agar pH 6.8, 30° C.) | MIC ([1]; nutrient agar pH 8.2, 30° C.) | MIC (Proteus vulgaris (Pv); nutrient agar pH 6.8, 30° C.) | MIC (Proteus vulgaris (Pv); nutrient agar pH 8.2, 30° C.) | MIC ([2]; nutrient agar pH 6.8, 30° C.) | MIC ([2]; nutrient agar pH 8.2, 30° C.) | MIC [3] | MIC ([4]; nutrient agar pH 6.8, 30° C.) | MIC ([4]; nutrient agar pH 8.2, 30° C.) | MIC [5] | MIC [6] | MIC (Candida albicans (Ca)) | MIC ([7]; nutrient agar pH 6.8, 30° C.) | MIC ([7]; nutrient agar pH 8.2, 30° C.) | MIC ([8]; nutrient agar pH 6.8, 30° C.) | other results |
| --- | --- | --- | --- | --- | --- | --- | --- | --- | --- | --- | --- | --- | --- | --- | --- | --- | --- | --- | --- | --- | --- |
| Cc1ccc(-n2nnnc2SCSC#N)cc1 [VII, 1-(4-Methylphenyl)-5-thiomethylthiocyanato-1H-tetrazole] | 10 µg/mL (≈ 38 µM) | 5 µg/mL (≈ 19 µM) | 2.5 µg/mL (≈ 9.49 µM) | 500 µg/mL (≈ 1900 µM) | 500 µg/mL (≈ 1900 µM) | > 500 µg/mL | > 500 µg/mL | 100 µg/mL (≈ 380 µM) | 250 µg/mL (≈ 949 µM) | > 500 µg/mL | > 500 µg/mL | < 1 µg/mL | 500 µg/mL (≈ 1900 µM) | 250 µg/mL (≈ 949 µM) | < 1 µg/mL | < 1 µg/mL | 10 µg/mL (≈ 38 µM) | 250 µg/mL (≈ 949 µM) | 100 µg/mL (≈ 380 µM) | 25 µg/mL (≈ 94.9 µM) | MIC ([8]; nutrient agar pH 8.2, 30° C.): 50 µg/mL (≈ 190 µM); MIC (Bacillus subtilis (Bs); nutrient agar pH 6.8, 30° C.): < 10 µg/mL; MIC (Bacillus subtilis (Bs); nutrient agar pH 8.2, 30° C.): < 10 µg/mL |
| COc1ccc(-n2nnnc2SCSC#N)cc1 [VIII, 1-(4-Methoxyphenyl)-5-thiomethylthiocyanato-1 H-tetrazole] | 25 µg/mL (≈ 89.5 µM) | < 10 µg/mL | < 10 µg/mL | 100 µg/mL (≈ 358 µM) | 500 µg/mL (≈ 1790 µM) | 250 µg/mL (≈ 895 µM) | 500 µg/mL (≈ 1790 µM) | 250 µg/mL (≈ 895 µM) | 500 µg/mL (≈ 1790 µM) | 250 µg/mL (≈ 895 µM) | 500 µg/mL (≈ 1790 µM) | < 10 µg/mL | 100 µg/mL (≈ 358 µM) | 500 µg/mL (≈ 1790 µM) | < 10 µg/mL | < 10 µg/mL | 25 µg/mL (≈ 89.5 µM) | 250 µg/mL (≈ 895 µM) | 100 µg/mL (≈ 358 µM) | 25 µg/mL (≈ 89.5 µM) | MIC [9]: 100 µg/mL (≈ 358 µM); MIC ([8]; nutrient agar pH 8.2, 30° C.): 100 µg/mL (≈ 358 µM); MIC (Bacillus subtilis (Bs); nutrient agar pH 6.8, 30° C.): < 10 µg/mL; MIC (Bacillus subtilis (Bs); nutrient agar pH 8.2, 30° C.): 25 µg/mL (≈ 89.5 µM) |
| CC(C)(C)c1ccc(-n2nnnc2SCSC#N)cc1 [IX, 1-(tertiary-Butylphenyl)-5-thiomethylthiocyanato-1H-tetrazole] | 100 µg/mL (≈ 327 µM) | 25 µg/mL (≈ 81.9 µM) | 5 µg/mL (≈ 16.4 µM) | 50 µg/mL (≈ 164 µM) | 250 µg/mL (≈ 819 µM) | 500 µg/mL (≈ 1640 µM) | 500 µg/mL (≈ 1640 µM) | 250 µg/mL (≈ 819 µM) | 100 µg/mL (≈ 327 µM) | 50 µg/mL (≈ 164 µM) | 100 µg/mL (≈ 327 µM) | 2.5 µg/mL (≈ 8.19 µM) | 500 µg/mL (≈ 1640 µM) | 500 µg/mL (≈ 1640 µM) | 2.5 µg/mL (≈ 8.19 µM) | 10 µg/mL (≈ 32.7 µM) | 100 µg/mL (≈ 327 µM) | 250 µg/mL (≈ 819 µM) | 100 µg/mL (≈ 327 µM) | 50 µg/mL (≈ 164 µM) | MIC ([8]; nutrient agar pH 8.2, 30° C.): 50 µg/mL (≈ 164 µM); MIC (Bacillus subtilis (Bs); nutrient agar pH 6.8, 30° C.): 25 µg/mL (≈ 81.9 µM); MIC (Bacillus subtilis (Bs); nutrient agar pH 8.2, 30° C.): 50 µg/mL (≈ 164 µM) |
